According to patent US20110173718A1, “HERBICIDE TOLERANT PLANTS” (SYNGENTA CROP PROTECTION, INC., priority 2008, published 2011):

System: weeds
Assay: Glasshouse weed control by HST/HPPD (mesotrione) mixtures, pre-emergence
Type: in vivo
Conditions: for colby: Colby synergy score; for % Damage at 14 DAA, 1 g ai ha^−1 mesotrione / % Damage at 14 DAA, no-mesotrione: N = 3
[1] = ALOMY, 16 g/ha + mesotrione 1 g ai/ha
[2] = ALOMY, 31 g/ha + mesotrione 1 g ai/ha
[3] = ALOMY, 63 g/ha + mesotrione 1 g ai/ha
[4] = ALOMY, 125 g/ha + mesotrione 1 g ai/ha
[5] = ALOMY, 250 g/ha + mesotrione 1 g ai/ha
[6] = ALOMY, 500 g/ha + mesotrione 1 g ai/ha
[7] = AMARE, 16 g/ha + mesotrione 1 g ai/ha
[8] = AMARE, 31 g/ha + mesotrione 1 g ai/ha
[9] = AMARE, 63 g/ha + mesotrione 1 g ai/ha
[10] = AMARE, 125 g/ha + mesotrione 1 g ai/ha
[11] = AMARE, 250 g/ha + mesotrione 1 g ai/ha
[12] = AMARE, 500 g/ha + mesotrione 1 g ai/ha
[13] = ECHCG, 16 g/ha + mesotrione 1 g ai/ha
[14] = ECHCG, 31 g/ha + mesotrione 1 g ai/ha
[15] = ECHCG, 63 g/ha + mesotrione 1 g ai/ha
[16] = ECHCG, 125 g/ha + mesotrione 1 g ai/ha
[17] = ECHCG, 250 g/ha + mesotrione 1 g ai/ha
[18] = ECHCG, 500 g/ha + mesotrione 1 g ai/ha
[19] = IPOHE, 16 g/ha + mesotrione 1 g ai/ha
[20] = IPOHE, 31 g/ha + mesotrione 1 g ai/ha
[21] = IPOHE, 63 g/ha + mesotrione 1 g ai/ha
[22] = IPOHE, 125 g/ha + mesotrione 1 g ai/ha
[23] = IPOHE, 250 g/ha + mesotrione 1 g ai/ha
[24] = IPOHE, 500 g/ha + mesotrione 1 g ai/ha
[25] = SETFA, 16 g/ha + mesotrione 1 g ai/ha
[26] = SETFA, 31 g/ha + mesotrione 1 g ai/ha
[27] = SETFA, 63 g/ha + mesotrione 1 g ai/ha
[28] = SETFA, 125 g/ha + mesotrione 1 g ai/ha
[29] = SETFA, 250 g/ha + mesotrione 1 g ai/ha
[30] = SETFA, 500 g/ha + mesotrione 1 g ai/ha
[31] = SOLNI, 16 g/ha + mesotrione 1 g ai/ha
[32] = SOLNI, 31 g/ha + mesotrione 1 g ai/ha
[33] = SOLNI, 63 g/ha + mesotrione 1 g ai/ha
[34] = SOLNI, 125 g/ha + mesotrione 1 g ai/ha
[35] = SOLNI, 250 g/ha + mesotrione 1 g ai/ha
[36] = SOLNI, 500 g/ha + mesotrione 1 g ai/ha

O=c1c(-c2c(F)ccc(F)c2Cl)c(O)c2cccnc2n1CC(F)F [Compound 2.13]
colby [1]: 0% | % Damage at 14 DAA, 1 g ai ha^−1 mesotrione [1]: 0% | % Damage at 14 DAA, no-mesotrione (ALOMY, 16 g/ha): 0% | colby [2]: 0% | % Damage at 14 DAA, 1 g ai ha^−1 mesotrione [2]: 0% | % Damage at 14 DAA, no-mesotrione (ALOMY, 31 g/ha): 0% | colby [3]: 0% | % Damage at 14 DAA, 1 g ai ha^−1 mesotrione [3]: 0% | % Damage at 14 DAA, no-mesotrione (ALOMY, 63 g/ha): 0% | colby [4]: 0% | % Damage at 14 DAA, 1 g ai ha^−1 mesotrione [4]: 0% | % Damage at 14 DAA, no-mesotrione (ALOMY, 125 g/ha): 0% | colby [5]: 0% | % Damage at 14 DAA, 1 g ai ha^−1 mesotrione [5]: 0% | % Damage at 14 DAA, no-mesotrione (ALOMY, 250 g/ha): 0% | colby [6]: −1% | % Damage at 14 DAA, 1 g ai ha^−1 mesotrione [6]: 0% | % Damage at 14 DAA, no-mesotrione (ALOMY, 500 g/ha): 2% | colby [7]: 5% | % Damage at 14 DAA, 1 g ai ha^−1 mesotrione [7]: 7% | % Damage at 14 DAA, no-mesotrione (AMARE, 16 g/ha): 0% | colby [8]: 13% | % Damage at 14 DAA, 1 g ai ha^−1 mesotrione [8]: 23% | % Damage at 14 DAA, no-mesotrione (AMARE, 31 g/ha): 8% | colby [9]: 4% | % Damage at 14 DAA, 1 g ai ha^−1 mesotrione [9]: 33% | % Damage at 14 DAA, no-mesotrione (AMARE, 63 g/ha): 28% | colby [10]: 12% | % Damage at 14 DAA, 1 g ai ha^−1 mesotrione [10]: 45% | % Damage at 14 DAA, no-mesotrione (AMARE, 125 g/ha): 32% | colby [11]: 3% | % Damage at 14 DAA, 1 g ai ha^−1 mesotrione [11]: 57% | % Damage at 14 DAA, no-mesotrione (AMARE, 250 g/ha): 53% | colby [12]: 9% | % Damage at 14 DAA, 1 g ai ha^−1 mesotrione [12]: 70% | % Damage at 14 DAA, no-mesotrione (AMARE, 500 g/ha): 60% | colby [13]: 0% | % Damage at 14 DAA, 1 g ai ha^−1 mesotrione [13]: 0% | % Damage at 14 DAA, no-mesotrione (ECHCG, 16 g/ha): 0% | colby [14]: 0% | % Damage at 14 DAA, 1 g ai ha^−1 mesotrione [14]: 0% | % Damage at 14 DAA, no-mesotrione (ECHCG, 31 g/ha): 0% | colby [15]: 3% | % Damage at 14 DAA, 1 g ai ha^−1 mesotrione [15]: 3% | % Damage at 14 DAA, no-mesotrione (ECHCG, 63 g/ha): 0% | colby [16]: 3% | % Damage at 14 DAA, 1 g ai ha^−1 mesotrione [16]: 3% | % Damage at 14 DAA, no-mesotrione (ECHCG, 125 g/ha): 0% | colby [17]: 2% | % Damage at 14 DAA, 1 g ai ha^−1 mesotrione [17]: 2% | % Damage at 14 DAA, no-mesotrione (ECHCG, 250 g/ha): 0% | colby [18]: −2% | % Damage at 14 DAA, 1 g ai ha^−1 mesotrione [18]: 2% | % Damage at 14 DAA, no-mesotrione (ECHCG, 500 g/ha): 3% | colby [19]: 0% | % Damage at 14 DAA, 1 g ai ha^−1 mesotrione [19]: 0% | % Damage at 14 DAA, no-mesotrione (IPOHE, 16 g/ha): 0% | colby [20]: 0% | % Damage at 14 DAA, 1 g ai ha^−1 mesotrione [20]: 0% | % Damage at 14 DAA, no-mesotrione (IPOHE, 31 g/ha): 0% | colby [21]: 7% | % Damage at 14 DAA, 1 g ai ha^−1 mesotrione [21]: 7% | % Damage at 14 DAA, no-mesotrione (IPOHE, 63 g/ha): 0% | colby [22]: 0% | % Damage at 14 DAA, 1 g ai ha^−1 mesotrione [22]: 0% | % Damage at 14 DAA, no-mesotrione (IPOHE, 125 g/ha): 0% | colby [23]: 5% | % Damage at 14 DAA, 1 g ai ha^−1 mesotrione [23]: 5% | % Damage at 14 DAA, no-mesotrione (IPOHE, 250 g/ha): 0% | colby [24]: 0% | % Damage at 14 DAA, 1 g ai ha^−1 mesotrione [24]: 17% | % Damage at 14 DAA, no-mesotrione (IPOHE, 500 g/ha): 17% | colby [25]: 0% | % Damage at 14 DAA, 1 g ai ha^−1 mesotrione [25]: 0% | % Damage at 14 DAA, no-mesotrione (SETFA, 16 g/ha): 0% | colby [26]: 0% | % Damage at 14 DAA, 1 g ai ha^−1 mesotrione [26]: 0% | % Damage at 14 DAA, no-mesotrione (SETFA, 31 g/ha): 0% | colby [27]: 0% | % Damage at 14 DAA, 1 g ai ha^−1 mesotrione [27]: 0% | % Damage at 14 DAA, no-mesotrione (SETFA, 63 g/ha): 0% | colby [28]: 0% | % Damage at 14 DAA, 1 g ai ha^−1 mesotrione [28]: 0% | % Damage at 14 DAA, no-mesotrione (SETFA, 125 g/ha): 0% | colby [29]: 0% | % Damage at 14 DAA, 1 g ai ha^−1 mesotrione [29]: 0% | % Damage at 14 DAA, no-mesotrione (SETFA, 250 g/ha): 0% | colby [30]: 0% | % Damage at 14 DAA, 1 g ai ha^−1 mesotrione [30]: 0% | % Damage at 14 DAA, no-mesotrione (SETFA, 500 g/ha): 0% | colby [31]: −12% | % Damage at 14 DAA, 1 g ai ha^−1 mesotrione [31]: 5% | % Damage at 14 DAA, no-mesotrione (SOLNI, 16 g/ha): 0% | colby [32]: −3% | % Damage at 14 DAA, 1 g ai ha^−1 mesotrione [32]: 23% | % Damage at 14 DAA, no-mesotrione (SOLNI, 31 g/ha): 12% | colby [33]: 4% | % Damage at 14 DAA, 1 g ai ha^−1 mesotrione [33]: 38% | % Damage at 14 DAA, no-mesotrione (SOLNI, 63 g/ha): 22% | colby [34]: 9% | % Damage at 14 DAA, 1 g ai ha^−1 mesotrione [34]: 53% | % Damage at 14 DAA, no-mesotrione (SOLNI, 125 g/ha): 33% | colby [35]: 5% | % Damage at 14 DAA, 1 g ai ha^−1 mesotrione [35]: 78% | % Damage at 14 DAA, no-mesotrione (SOLNI, 250 g/ha): 68% | colby [36]: −1% | % Damage at 14 DAA, 1 g ai ha^−1 mesotrione [36]: 87% | % Damage at 14 DAA, no-mesotrione (SOLNI, 500 g/ha): 85%
